Experimental data reported in US20240150839A1, “METHODS FOR PREDICTING RESPONSIVENESS OF PROSTATE CANCER PATIENTS TO PARP INHIBITORS” (Memorial Sloan Kettering Cancer Center, priority 2019, published 2024).

How the values were obtained:
Format in all cases: cell-based, human
PC3M cells = assay: MTT cell growth with PARPi or cisplatin; details: talazoparib 5 nM, 6 days, P<0.0001 (FIG. 11D)
Description: (§1) The ploidy of each cell line is indicated. […] Equivalent volume of DMSO was used as placebo treatment. Cell growth was measured by MTT assay (see Example 1); SD, each point indicates the MTT count of each well of 96-well plate, P-values determined by Student's t-test. **P<0.01, ****P<0.0001. […] Cell Proliferation Assay by MTT, BrdU and Crystal Violet. For MTT assay, cells were plated at 2.5×10^3 per well in 96-well plates in complete media (10% FBS) or media supplemented with 10% charcoal-stripped serum. Cells were either treated with DMSO or with indicated inhibitors. After indicated times, cells were incubated in 0.5 mg/mL MTT (Invitrogen) for 1 hour at 37° C. MTT crystals were dissolved in isopropanol and absorbance was measured in a BioTek plate reader at […] and represented graphically.

22RV1 cells = assay: MTT cell growth with PARPi or cisplatin; details: 22RV1, BRCA2 T3033Nfs*11, RB1-wt; cisplatin 500 nM, talazoparib 5 nM, 6 days (FIG. 11D)
Description: as §1

LNCaP-BRCA2-RB1 cells = assay: MTT cell growth with PARP inhibitors; details: LNCaP-BRCA2-RB1 vs BRCA2-null LNCaP; olaparib 3 μM, talazoparib 0.005 μM (FIG. 2E)
Description: (§2) Scr-CRISPR and BRCA2-CRISPR2 cells were also transfected with non-targeting shRNA (scr-Sh) for control of shRNA. RHoGDI served as the loading control. […] Equivalent volume of DMSO was used as placebo treatment. Cell growth was measured by MTT assay; SD, p-values were determined by Student's t-test. […] FIG. 2C (2nd and 3rd rows) show the immunofluorescence (400× magnification) of F-actin filament stained with phalloidin in indicated CRISPR/shRNA-infected LNCaP cells. Nuclei were stained with DAPI (blue). […] 5×10^3 indicated cells were plated on the top of Boyden chamber (see Example 1) in serum-free media; 10% serum in the bottom chamber was used as chemo-attractant. After 48 hours, cells in the lower side of the chamber were fixed, stained, and photographed (100× magnification). […] Nuclei were stained with DAPI (blue). […] The graphs show cell growth measured by MTT assay (±SD); P-values determined by Student's t-test. […] RNA sequencing was analyzed by Partek.
(§3) To generate BRCA2-RB1 knockout-knockdown LNCaP cells, parental LNCaP cells were first infected with lentivirus containing BRCA2 gRNA or scr gRNA. Pooled population of the stable cells were established by puromycin selection and analyzed by western blot and qPCR. BRCA2-knockout or scr LNCaP cells were infected with lentivirus containing RB1 shRNA followed by hygromycin selection. BRCA2-knockout or scr (gRNA) LNCaP cells also infected with lentiviral non-targeting shRNA (scr-shRNA) were used as control. Cells within 4-10 passages after stable selection were used for the following experiments.
(§4) Cell Proliferation Assay by MTT, BrdU and Crystal Violet. For MTT assay, cells were plated at 2.5×10^3 per well in 96-well plates in complete media (10% FBS) or media supplemented with 10% charcoal-stripped serum. Cells were either treated with DMSO or with indicated inhibitors. After indicated times, cells were incubated in 0.5 mg/mL MTT (Invitrogen) for 1 hour at 37° C. MTT crystals were dissolved in isopropanol and absorbance was measured in a BioTek plate reader at […] and represented graphically.

[1] = system: RB1 knockdown LNCaP cells; assay: MTT cell growth with PARP inhibitors; details: RB1 knockdown vs control LNCaP cells; olaparib 3 μM, talazoparib 0.005 μM (FIG. 2E)
Description: as §2, §3, §4

BRCA2-null LNCaP cells = assay: MTT cell growth of BRCA2 CRISPR-edited LNCaP cells with PARP inhibitors or cisplatin; details: BRCA2 knockout LNCaP vs control gRNA (scr) cells; complete medium, 6 days (FIG. 7C)
Description: Cells infected with scrambled (scr) gRNA were used as control. Equal amount of proteins was loaded in WedgeWell 6% gel and western blot was performed. ˜400 kDa BRCA2 band is indicated by arrow. GAPDH served as loading controls for western blot and qPCR. […] Genotypes are detected by PCR amplification followed by being treated with T7 endonuclease. Wt and mutant BRCA2 are indicated by red and green arrows, respectively. […] Equivalent volume of DMSO was used as placebo treatment. Cell growth was measured by MTT assay (see Example 1); SD, P-values determined by Student's t-test. *P<0.05, **P<0.01, ***P<0.001. FIGS. 7D-7E show the growth curve (FIG. 7D) and a bar graph (FIG. 7E) representing the cell growth of LNCaP BRCA2 CRISPR-edited and non-targeting control gRNA (scr) infected cells in complete medium supplemented with enzalutamide (ENZ; indicated concentration) for 7 days or charcoal-stripped medium (CSS) for 5 days, respectively. Equivalent volume of DMSO was used as placebo treatment. Cell growth was measured by crystal violet staining assay (see Example 1) (±SD); P-values determined by Student's t-test. […] Equivalent volume of DMSO was used as placebo treatment. Cell growth was measured by MTT assay (see Example 1) (±SD); P-values determined by Student's t-test. […] Total RNA was isolated, and BRCA2 mRNA was analyzed by qPCR. […] Cell growth was measured by MTT assay; SD, P-values determined by Student's t-test.
To generate BRCA2 knockout RWPE1 cells, BRCA2 gRNA2 was cloned into LentiCRISPRv2-GFP backbone which constitutively expresses Cas9 and GFP. Lentiviral infected cells were selected by FACS sorting for GFP positive cells (twice) and analyzed by western blot. […] Loss of BRCA2 in the pooled populations of LNCaP cells was analyzed by western blot using BRCA2-specific antibodies and this pooled population of cells was used for the following experiments. […]
Cell Proliferation Assay by MTT, BrdU and Crystal Violet. […] MTT crystals were dissolved in isopropanol and absorbance was measured in a BioTek plate reader at […] and represented graphically.

MSK-PCa1 organoid = assay: MTT growth of mCRPC organoids with PARPi; details: compared to benign organoid; 3 days (FIG. 6E)
Source text: (§5) Near-diploid benign prostate organoid is used as a control. […] GAPDH served as the loading control. […] The graphs show cell growth measured by MTT assay (±SD); P-trends determined by 2-way ANOVA.
(§6) Cell Culture. Human prostate cancer cells LNCaP, 22RV1, DU145, PC3, and VCaP were obtained from ATCC (Manassas, VA). LNCaP-C42 cells were obtained from VitroMed (Burlington, NC). The LNCaP-Abl cell line, E006AA-T cells, PC3M LAPC4 cell line were obtained. These cells were maintained in 10% FBS (LNCaP, LNCaP-C42, LAPC4, VCaP, 22RV1, DU145, PC3, PC3M, and E006AA) or 10% charcoal-stripped serum (LNCaP-Abl) supplemented with 2 mM of L-glutamine and 1×antibiotic/antimycotic (Gemini Bio-Products, Sacramento, CA) at 37° C. in 5% CO2. Human prostate epithelial cell RWPE1 was obtained from ATCC and cultured in keratinocyte serum-free medium (Thermo Fisher Scientific, Waltham, MA) at 37° C. in 5% CO2. Cells were authenticated by human short tandem repeat profiling at the MSK Integrated Genomics Operation Core. Patient-derived human prostate cancer organoids were cultured as described. Gao et al., Cell 159:176-87 (2014).
as §4

MSK-PCa3 organoid = assay: MTT growth of mCRPC organoids with PARPi; details: compared to benign organoid; 3 days (FIG. 6E)
Source text: as §5, §6, §4

Q: For `Cn1ncnc1[C@H]1c2n[nH]c(=O)c3cc(F)cc(c23)N[C@@H]1c1ccc(F)cc1` [talazoparib], which “growth inhibition compared to olaparib (2.5 μM)” value (PC3M cells) is on record?
A: The value was “more growth inhibition”.

Q: And the “sensitivity (cell growth, MTT)” value (22RV1 cells)?
A: Its value is “modest sensitivity”.

Q: What about the “cell growth inhibition (MTT)” value (LNCaP-BRCA2-RB1 cells) of the same compound?
A: Its value is “more cell growth inhibition”.

Q: And the “inhibitory effect on cell growth (MTT)” value [1]?
A: The value was “could not be detected”.

Q: And the “sensitivity (cell growth, MTT)” value (BRCA2-null LNCaP cells)?
A: The value was “more sensitivity”.

Q: And the “organoid growth (MTT)” value (MSK-PCa1 organoid)?
A: Its value is “growth reduction”.

Q: And the “organoid growth (MTT)” value (MSK-PCa3 organoid)?
A: The value was “growth reduction”.
